These compounds were tested against T1, Human CD73 (amino acid residues 27-549) (Homo sapiens, UniProt P21589) (assay: CD73 enzymatic assay (luciferase-based indirect assay, CellTiter-Glo)). Conditions: 0.4 nM CD73, 150 μM AMP, 1 hour at room temperature.
T1 construct: Human CD73 (amino acid residues 27-549); His tag (N); made in house; host or cells: E. coli
T1 sequence (P21589 27-549): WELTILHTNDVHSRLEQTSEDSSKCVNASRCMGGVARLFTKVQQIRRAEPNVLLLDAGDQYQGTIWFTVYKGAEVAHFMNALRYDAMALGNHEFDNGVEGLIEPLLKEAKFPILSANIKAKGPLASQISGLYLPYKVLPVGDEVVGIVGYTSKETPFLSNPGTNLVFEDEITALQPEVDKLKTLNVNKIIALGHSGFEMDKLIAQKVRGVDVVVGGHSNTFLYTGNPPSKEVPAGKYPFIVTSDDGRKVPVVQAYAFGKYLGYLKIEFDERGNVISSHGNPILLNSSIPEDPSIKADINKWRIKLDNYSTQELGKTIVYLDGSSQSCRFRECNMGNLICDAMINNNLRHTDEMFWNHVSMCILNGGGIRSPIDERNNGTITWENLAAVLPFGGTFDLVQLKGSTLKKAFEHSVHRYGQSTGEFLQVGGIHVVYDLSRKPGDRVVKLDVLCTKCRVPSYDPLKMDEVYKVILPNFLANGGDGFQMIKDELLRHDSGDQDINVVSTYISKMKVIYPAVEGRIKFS
Assay type: biochemical
Procedure: CD73 enzymatic activity was measured in a luciferase-based indirect assay using CellTiter-Glo® system from Promega. The luciferase reaction in the presence of ATP is inhibited by AMP, a primary substrate of CD73. Addition of CD73 enzyme to the reaction converts AMP to adenosine, and release the inhibition, producing a luminescent signal. Inhibition of CD73 leads to the decrease of this luminescent signal.
Human CD73 (amino acid residues 27-549) with N-Terminal His tag was purified in E. coli. All the assay components were prepared in 50 mM HEPEs buffer (pH 7.4) with 0.01% Tween® 20. The CD73 enzymatic assay was performed using 0.4 nM CD73 and 150 μM AMP. 9.5 μL of CD73 protein and 9.5 μL of AMP were added to the wells of a 384 well plate containing 1 μL of various concentrations of test compound or DMSO vehicle and incubated for 1 hour at room temperature. 16 wells containing CD73, AMP and 5% DMSO served as high control. 16 wells containing AMP and 5% DMSO served as low control. Enzymatic reaction was stopped and AMP level was measured indirectly by adding 5 μL of CellTiter-Glo® 2.0 reagent and 5 μL of ATP with a final concentration of 1 μM. Following incubation of the plate at room temperature for 30 minutes, luminescent signal was read on a Tecan plate reader. The percentage inhibition at individual concentrations relative to high and low controls was calculated. The data were analyzed by using nonlinear regression to generate IC50 values.

| SMILES | IC50 |
| --- | --- |
| CCCCOC(=O)N[C@@H]1CCN(c2cn[nH]c(=O)c2Cl)C1 [P-0001, butyl (R)-(1-(5-chloro-6-oxo-1,6-dihydropyridazin-4-yl)pyrrolidin-3-yl)carbamate] | 0.001 to 10 µM |
| O=C(NCC1CCCC1)N[C@@H]1CCN(c2cn[nH]c(=O)c2Cl)C1 [P-0004, (R)-1-(1-(5-chloro-6-oxo-1,6-dihydropyridazin-4-yl)pyrrolidin-3-yl)-3-(cyclopentylmethyl)urea] | 0.001 to 10 µM |
| O=C(NCC1CCOCC1)N[C@@H]1CCN(c2cn[nH]c(=O)c2Cl)C1 [P-0008, (R)-1-(1-(5-chloro-6-oxo-1,6-dihydropyridazin-4-yl)pyrrolidin-3-yl)-3-((tetrahydro-2H-pyran-4-yl)methyl)urea] | 0.001 to 10 µM |
| O=C(N[C@@H]1CCN(c2cn[nH]c(=O)c2Cl)C1)Oc1ccccc1 [P-0010, phenyl (R)-(1-(5-chloro-6-oxo-1,6-dihydropyridazin-4-yl)pyrrolidin-3-yl)carbamate] | 0.001 to 10 µM |
| Cc1occc1NC(=O)N[C@@H]1CCN(c2cn[nH]c(=O)c2Cl)C1 [P-0012, (R)-1-(1-(5-chloro-6-oxo-1,6-dihydropyridazin-4-yl)pyrrolidin-3-yl)-3-(2-methylfuran-3-yl)urea] | 0.001 to 10 µM |
| O=C(Nc1ccsc1)N[C@@H]1CCN(c2cn[nH]c(=O)c2Cl)C1 [P-0013, (R)-1-(1-(5-chloro-6-oxo-1,6-dihydropyridazin-4-yl)pyrrolidin-3-yl)-3-(thiophen-3-yl)urea] | 0.001 to 10 µM |
| Cn1cc(NC(=O)N[C@@H]2CCN(c3cn[nH]c(=O)c3Cl)C2)cn1 [P-0014, (R)-1-(1-(5-chloro-6-oxo-1,6-dihydropyridazin-4-yl)pyrrolidin-3-yl)-3-(1-methyl-1H-pyrazol-4-yl)urea] | 10 to 100 µM |
| COCCCNC(=O)N[C@@H]1CCN(c2cn[nH]c(=O)c2Cl)C1 [P-0016, (R)-1-(1-(5-chloro-6-oxo-1,6-dihydropyridazin-4-yl)pyrrolidin-3-yl)-3-(3-methoxypropyl)urea] | 10 to 100 µM |
| O=C(NC1CCCC1)N[C@H]1CCN(c2cn[nH]c(=O)c2Cl)C1 [P-0023, (S)-1-(1-(5-chloro-6-oxo-1,6-dihydropyridazin-4-yl)pyrrolidin-3-yl)-3-cyclopentylurea] | 10 to 100 µM |
| O=C(N[C@H]1CCN(c2cn[nH]c(=O)c2Cl)C1)OC1CCCCC1 [P-0025, cyclohexyl (S)-(1-(5-chloro-6-oxo-1,6-dihydropyridazin-4-yl)pyrrolidin-3-yl)carbamate] | 0.001 to 10 µM |
| Cc1noc(C)c1NC(=O)N[C@@H]1CCN(c2cn[nH]c(=O)c2Cl)C1 [P-0027, (R)-1-(1-(5-chloro-6-oxo-1,6-dihydropyridazin-4-yl)pyrrolidin-3-yl)-3-(3,5-dimethylisoxazol-4-yl)urea] | 0.001 to 10 µM |
| O=C(NC1CCOCC1)N[C@@H]1CCN(c2cn[nH]c(=O)c2Cl)C1 [P-0029, (R)-1-(1-(5-chloro-6-oxo-1,6-dihydropyridazin-4-yl)pyrrolidin-3-yl)-3-(tetrahydro-2H-pyran-4-yl)urea] | 0.001 to 10 µM |
| O=C(NCc1ccccc1)N[C@@H]1CCN(c2cn[nH]c(=O)c2Cl)C1 [P-0031, (R)-1-benzyl-3-(1-(5-chloro-6-oxo-1,6-dihydropyridazin-4-yl)pyrrolidin-3-yl)urea] | 10 to 100 µM |
| CCOc1ccc(NC(=O)N[C@@H]2CCN(c3cn[nH]c(=O)c3Cl)C2)cc1 [P-0034, (R)-1-(1-(5-chloro-6-oxo-1,6-dihydropyridazin-4-yl)pyrrolidin-3-yl)-3-(4-ethoxyphenyl)urea] | 10 to 100 µM |
| CCOc1cccc(NC(=O)N[C@@H]2CCN(c3cn[nH]c(=O)c3Cl)C2)c1 [P-0035, (R)-1-(1-(5-chloro-6-oxo-1,6-dihydropyridazin-4-yl)pyrrolidin-3-yl)-3-(3-ethoxyphenyl)urea] | 10 to 100 µM |
| CC(C)(C)OC(=O)N[C@@H]1CCN(c2cn[nH]c(=O)c2C#N)C1 [P-0036, tert-butyl (R)-(1-(5-cyano-6-oxo-1,6-dihydropyridazin-4-yl)pyrrolidin-3-yl)carbamate] | 0.001 to 10 µM |
| CC(C)(C)OC(=O)N[C@@H]1CCN(c2cn[nH]c(=O)c2)C1 [P-0037, tert-butyl (R)-(1-(6-oxo-1,6-dihydropyridazin-4-yl)pyrrolidin-3-yl)carbamate] | 10 to 100 µM |
| COc1ccc(CNC(=O)N[C@@H]2CCN(c3cn[nH]c(=O)c3Cl)C2)cc1OC [P-0040, (R)-1-(1-(5-chloro-6-oxo-1,6-dihydropyridazin-4-yl)pyrrolidin-3-yl)-3-(3,4-dimethoxybenzyl)urea] | 10 to 100 µM |

Continued, values first:

| IC50 | SMILES |
| --- | --- |
| 10 to 100 µM | CC(C)(C)OC(=O)N[C@H]1CCN(c2cn[nH]c(=O)c2Cl)C1 [P-0002, tert-butyl (S)-(1-(5-chloro-6-oxo-1,6-dihydropyridazin-4-yl)pyrrolidin-3-yl)carbamate] |
| 0.001 to 10 µM | O=C(NC1CCCCCC1)N[C@@H]1CCN(c2cn[nH]c(=O)c2Cl)C1 [P-0003, (R)-1-(1-(5-chloro-6-oxo-1,6-dihydropyridazin-4-yl)pyrrolidin-3-yl)-3-cycloheptylurea] |
| 0.001 to 10 µM | O=C(NCC1CCOC1)N[C@@H]1CCN(c2cn[nH]c(=O)c2Cl)C1 (stereo partly drawn) [P-0005, 1-((R)-1-(5-chloro-6-oxo-1,6-dihydropyridazin-4-yl)pyrrolidin-3-yl)-3-((tetrahydrofuran-3-yl)methyl)urea] |
| 10 to 100 µM | O=C(NCC1CCS(=O)(=O)C1)N[C@@H]1CCN(c2cn[nH]c(=O)c2Cl)C1 (stereo partly drawn) [P-0006, 1-((R)-1-(5-chloro-6-oxo-1,6-dihydropyridazin-4-yl)pyrrolidin-3-yl)-3-((1,1-dioxidotetrahydrothiophen-3-yl)methyl)urea] |
| 0.001 to 10 µM | O=C(NCC1CCCCC1)N[C@@H]1CCN(c2cn[nH]c(=O)c2Cl)C1 [P-0007, (R)-1-(1-(5-chloro-6-oxo-1,6-dihydropyridazin-4-yl)pyrrolidin-3-yl)-3-(cyclohexylmethyl)urea] |
| 10 to 100 µM | O=C(Nc1cccnc1)N[C@@H]1CCN(c2cn[nH]c(=O)c2Cl)C1 [P-0009, (R)-1-(1-(5-chloro-6-oxo-1,6-dihydropyridazin-4-yl)pyrrolidin-3-yl)-3-(pyridin-3-yl)urea] |
| 0.001 to 10 µM | CC(C)(C)OC(=O)N[C@@H]1CCN(c2cn[nH]c(=O)c2Br)C1 [P-0011, tert-butyl (R)-(1-(5-bromo-6-oxo-1,6-dihydropyridazin-4-yl)pyrrolidin-3-yl)carbamate] |
| 10 to 100 µM | O=C(NC1CCN(C(=O)C(F)(F)F)CC1)N[C@H]1CCN(c2cn[nH]c(=O)c2Cl)C1 [P-0024, (S)-1-(1-(5-chloro-6-oxo-1,6-dihydropyridazin-4-yl)pyrrolidin-3-yl)-3-(1-(2,2,2-trifluoroacetyl)piperidin-4-yl)urea] |
| 10 to 100 µM | CCOC(=O)CCNC(=O)N[C@@H]1CCN(c2cn[nH]c(=O)c2Cl)C1 [P-0026, ethyl (R)-3-(3-(1-(5-chloro-6-oxo-1,6-dihydropyridazin-4-yl)pyrrolidin-3-yl)ureido)propanoate] |
| 10 to 100 µM | O=C(Nc1cccc(C(F)(F)F)c1)N[C@@H]1CCN(c2cn[nH]c(=O)c2Cl)C1 [P-0028, (R)-1-(1-(5-chloro-6-oxo-1,6-dihydropyridazin-4-yl)pyrrolidin-3-yl)-3-(3-(trifluoromethyl)phenyl)urea] |
| 10 to 100 µM | O=C(NCCc1ccccc1)N[C@@H]1CCN(c2cn[nH]c(=O)c2Cl)C1 [P-0032, (R)-1-(1-(5-chloro-6-oxo-1,6-dihydropyridazin-4-yl)pyrrolidin-3-yl)-3-phenethylurea] |
| 10 to 100 µM | COc1cccc(NC(=O)N[C@@H]2CCN(c3cn[nH]c(=O)c3Cl)C2)c1 [P-0033, (R)-1-(1-(5-chloro-6-oxo-1,6-dihydropyridazin-4-yl)pyrrolidin-3-yl)-3-(3-methoxyphenyl)urea] |
| 0.001 to 10 µM | O=C(Nc1ccccc1)N[C@@H]1CCN(c2cn[nH]c(=O)c2Cl)C1 [P-0038, (R)-1-(1-(5-chloro-6-oxo-1,6-dihydropyridazin-4-yl)pyrrolidin-3-yl)-3-phenylurea] |
| 0.001 to 10 µM | O=C(Nc1ccc(OC(F)(F)F)cc1)N[C@@H]1CCN(c2cn[nH]c(=O)c2Cl)C1 [P-0041, (R)-1-(1-(5-chloro-6-oxo-1,6-dihydropyridazin-4-yl)pyrrolidin-3-yl)-3-(4-(trifluoromethoxy)phenyl)urea] |
| 0.001 to 10 µM | N#Cc1ccc(NC(=O)N[C@@H]2CCN(c3cn[nH]c(=O)c3Cl)C2)cc1 [P-0042, (R)-1-(1-(5-chloro-6-oxo-1,6-dihydropyridazin-4-yl)pyrrolidin-3-yl)-3-(4-cyanophenyl)urea] |

— patent US12509444B2, “Compounds and methods for CD73 modulation and indications therefor” (Plexxikon Inc., priority 2019, dated 2025)
